Measured values from article PMC6923382, “Small molecules that inhibit TNF signalling by stabilising an asymmetric form of the trimer” (Nature Communications, 2019).
Values joined by “and” are separate entries in the source; they are usually repeats but may differ in a detail not shown here. Identical values can stand only once. Like-named read-outs stand apart in the source and are kept apart here.

Columns and labels:
[1] = Blood exposure of UCB-9260 in the mouse models; type: in vivo; settings: mouse, blood
[2] = molecular target: TNF (Homo sapiens, UniProt P01375); experiment: Human TNF induced neutrophil recruitment in vivo; set-up: stabilise an asymmetrical form of the soluble TNF trimer; settings: for CD45+ GR-1+ cells/mL in the peritoneal cavity: human TNF, individual mice
Protocol: All in vivo studies were reviewed by an internal Ethical Review Body (ERB) and conducted in accordance with the Animals (Scientific Procedures) Act 1986, EU Directive 2010/63/EU. […] Anti-TNFα biologics, CDP571[21] (10 mg/kg) and etanercept (30 mg/kg), diluted in PBS, were dosed intravenously prior to human and mouse TNF challenge. Two hours after the TNF challenge, mice were sacrificed and the peritoneal cavity lavaged with 3 mL of FACS buffer. An aliquot (0.3 mL) of lavage fluid was used to assess the number CD45^+GR1^+ cells by flow cytometry. Briefly, the cells were treated with ACK lysis buffer, washed and suspended in FACS buffer prior to staining with FITC anti-mouse CD45 and PE anti-mouse GR1. Data are shown as mean ± standard error of the number of CD45^+GR-1^+ cells. Statistical significance (*p < 0.05, **p < 0.01, ****p < 0.0001) was determined using one-way ANOVA with Dunnett’s multiple comparison test.

Chain of TNF (P01375 77-233 limits assumed): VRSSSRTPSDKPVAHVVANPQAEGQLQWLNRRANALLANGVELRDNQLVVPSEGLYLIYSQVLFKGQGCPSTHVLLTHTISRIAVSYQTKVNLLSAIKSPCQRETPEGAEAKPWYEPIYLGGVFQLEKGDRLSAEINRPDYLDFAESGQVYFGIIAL

Cc1ccc(C)c(Cn2c(C(O)c3ccncc3)nc3ccc(-c4cnn(C)c4)cc32)c1 (centres unmarked) [UCB-9260]
concentration at 0.5 h ([1]; Balb/c, oral, 10 mg/kg, mouse TNF neutrophilia model, individual mice, read-out: Free exposure): 35.9 nM | concentration at 0.5 h ([1]; Balb/c, oral, 30 mg/kg, 30 mg/kg p.o., mouse TNF neutrophilia model, Fu 2.4%, read-out: Blood concentration 0.5h post dose (free)): 225 ± 23 nM | concentration at 0.5 h ([1]; Balb/c, oral, 30 mg/kg, 30 mg/kg p.o., mouse TNF neutrophilia model, mean n=3 ± s.e.m., read-out: Blood concentration 0.5h post dose total): 9360 nM | concentration at 0.5 h ([1]; Balb/c, oral, 30 mg/kg, mouse TNF neutrophilia model, individual mice, 0.5h post dose, read-out: Total exposure): 9980 nM | concentration at 0.5 h ([1]; Balb/c, oral, 30 mg/kg, mouse TNF neutrophilia model, individual mice, read-out: Free exposure): 254 nM | concentration at 0.5 h ([1]; Balb/c, oral, 100 mg/kg, 100 mg/kg p.o., human TNF neutrophilia model, Fu 2.4%, read-out: Blood concentration 0.5h post dose (free)): 716 ± 93 nM | concentration at 0.5 h ([1]; Balb/c, oral, 100 mg/kg, 100 mg/kg p.o., human TNF neutrophilia model, mean n=3 ± s.e.m., read-out: Blood concentration 0.5h post dose total): 29800 nM | concentration at 0.5 h ([1]; Balb/c, oral, 100 mg/kg, 100 mg/kg p.o., mouse TNF neutrophilia model, Fu 2.4%, read-out: Blood concentration 0.5h post dose (free)): 1350 nM | concentration at 0.5 h ([1]; Balb/c, oral, 100 mg/kg, 100 mg/kg p.o., mouse TNF neutrophilia model, mean ± s.e.m., read-out: Blood concentration 0.5h post dose total): 56100 nM | concentration at 0.5 h ([1]; Balb/c, oral, 100 mg/kg, human TNF neutrophilia model, individual mice, 0.5h post dose, read-out: Total exposure): 29100 nM | concentration at 0.5 h ([1]; Balb/c, oral, 100 mg/kg, human TNF neutrophilia model, individual mice, read-out: Free exposure): 886 nM | concentration at 0.5 h ([1]; Balb/c, oral, 300 mg/kg, 300 mg/kg p.o., human TNF neutrophilia model, Fu 2.4%, read-out: Blood concentration 0.5h post dose (free)): 1190 nM | concentration at 0.5 h ([1]; Balb/c, oral, 300 mg/kg, 300 mg/kg p.o., human TNF neutrophilia model, mean n=3 ± s.e.m., read-out: Blood concentration 0.5h post dose total): 49500 nM | concentration at 0.5 h ([1]; Balb/c, oral, 300 mg/kg, 300 mg/kg p.o., mouse TNF neutrophilia model, Fu 2.4%, read-out: Blood concentration 0.5h post dose (free)): 1270 nM | concentration at 0.5 h ([1]; Balb/c, oral, 300 mg/kg, 300 mg/kg p.o., mouse TNF neutrophilia model, mean n=3 ± s.e.m., read-out: Blood concentration 0.5h post dose total): 53000 nM | concentration at 0.5 h ([1]; Balb/c, oral, 300 mg/kg, human TNF neutrophilia model, individual mice, 0.5h post dose, read-out: Total exposure): 41500 nM | concentration at 0.5 h ([1]; Balb/c, oral, 300 mg/kg, human TNF neutrophilia model, individual mice, read-out: Free exposure): 1190 nM | concentration at 0.5 h ([1]; Balb/c, oral, 300 mg/kg, mouse TNF neutrophilia model, individual mice, 0.5h post dose, read-out: Total exposure): 63000 nM | concentration at 0.5 h ([1]; Balb/c, oral, 300 mg/kg, mouse TNF neutrophilia model, individual mice, read-out: Free exposure): 1170 nM | concentration at 1 h ([1]; male, Balb/c, oral, 10 mg/kg, 10 mg/kg p.o., zymosan model, Fu 2.4%, read-out: Blood concentration 1h post dose (free)): 2 ± 0.4 nM | concentration at 1 h ([1]; male, Balb/c, oral, 10 mg/kg, 10 mg/kg p.o., zymosan model, mean n=8 ± s.e.m., read-out: Blood concentration 1h post dose (total)): 86 ± 15 nM | concentration at 1 h ([1]; male, Balb/c, oral, 30 mg/kg, 30 mg/kg p.o., zymosan model, Fu 2.4%, read-out: Blood concentration 1h post dose (free)): 70 ± 7 nM | concentration at 1 h ([1]; male, Balb/c, oral, 30 mg/kg, 30 mg/kg p.o., zymosan model, mean n=8 ± s.e.m., read-out: Blood concentration 1h post dose (total)): 2900 nM | concentration at 1 h ([1]; male, Balb/c, oral, 30 mg/kg, zymosan model, individual mice, read-out: free exposure 1h post dose): 46.8 nM | concentration at 1 h ([1]; male, Balb/c, oral, 30 mg/kg, zymosan model, individual mice, read-out: total exposure 1h post dose): 1950 nM | concentration at 1 h ([1]; male, Balb/c, oral, 100 mg/kg, 100 mg/kg p.o., zymosan model, Fu 2.4%, read-out: Blood concentration 1h post dose (free)): 630 ± 98 nM | concentration at 1 h ([1]; male, Balb/c, oral, 100 mg/kg, 100 mg/kg p.o., zymosan model, mean n=8 ± s.e.m., read-out: Blood concentration 1h post dose (total)): 26300 nM | concentration at 1 h ([1]; male, Balb/c, oral, 300 mg/kg, 300 mg/kg p.o., zymosan model, Fu 2.4%, read-out: Blood concentration 1h post dose (free)): 677 ± 121 nM | concentration at 1 h ([1]; male, Balb/c, oral, 300 mg/kg, 300 mg/kg p.o., zymosan model, mean n=8 ± s.e.m., read-out: Blood concentration 1h post dose (total)): 28200 nM | concentration at 1 h ([1]; 150 mg/kg, 150 mg/kg B.I.D., CAIA model, mean ± s.e.m., read-out: Blood concentration total, 1h post dose): 17300 nM | concentration at 6 h ([1]; 150 mg/kg, 150 mg/kg B.I.D., CAIA model, mean ± s.e.m., read-out: Blood concentration total, 6h post dose): 9970 nM | concentration at 1 h ([1]; 150 mg/kg, 150 mg/kg B.I.D., CAIA model, read-out: Blood concentration (free), 1h post dose): 415 ± 100 nM | concentration at 6 h ([1]; 150 mg/kg, 150 mg/kg B.I.D., CAIA model, read-out: Blood concentration (free), 6h post dose): 239 ± 101 nM | concentration at 0.5 h ([1]; oral, 10 mg/kg, 10 mg/kg p.o., human TNF neutrophilia model, Fu 2.4%, read-out: Blood concentration 0.5h post dose (free)): 20 ± 4 nM | concentration at 0.5 h ([1]; oral, 30 mg/kg, 30 mg/kg p.o., human TNF neutrophilia model, Fu 2.4%, read-out: Blood concentration 0.5h post dose (free)): 203 ± 59 nM | concentration at 0.5 h ([1]; oral, 30 mg/kg, 30 mg/kg p.o., human TNF neutrophilia model, mean n=3 ± s.e.m., read-out: Blood concentration 0.5h post dose total): 8460 nM | CD45+ GR-1+ cells/mL in the peritoneal cavity ([2]; 10mg/kg): 80382.4 cells/mL and 68398.8 cells/mL and 97517.0 cells/mL and 65083.3 cells/mL and 43379.0 cells/mL and 51529.8 cells/mL | CD45+ GR-1+ cells/mL in the peritoneal cavity ([2]; 30mg/kg): 12661.4 cells/mL and 54428.1 cells/mL and 25233.7 cells/mL and 91899.5 cells/mL and 50362.8 cells/mL and 37741.7 cells/mL | CD45+ GR-1+ cells/mL in the peritoneal cavity ([2]; 100mg/kg): 14437.1 cells/mL and 19826.5 cells/mL and 38381.4 cells/mL and 4238.2 cells/mL and 19466.7 cells/mL and 51556.6 cells/mL and 16326.3 cells/mL and 11513.0 cells/mL | CD45+ GR-1+ cells/mL in the peritoneal cavity ([2]; 300mg/kg): 3894.3 cells/mL and 4438.0 cells/mL and 8909.7 cells/mL and 7748.4 cells/mL and 19700.6 cells/mL and 11113.9 cells/mL | dose with significant inhibition of neutrophil recruitment ([2]; oral, human TNF i.p., CD45+GR1+ cells): 30 mg/kg
